Values quoted from earlier work, collected in patent US20260327216A1, “SUBSTITUTED OXAZOLONE COMPOUND FOR DECREASING LEVELS OF IKZF I-4 PROTEINS” (BRISTOL-MYERS SQUIBB COMPANY, priority 2023, published 2026).

Key:
[1] = system: solid tumors; details: patients with solid tumors / advanced malignancies; cited from earlier work
[2] = system: highly immunogenic syngeneic tumors; details: engineered mouse models; Geng et al., 2022; cited from earlier work
[3] = system: T and NK cell functions; details: preclinical and clinical studies; cited from earlier work

Compound	clinical response in patients with solid tumors [1]	antitumor immune responses against highly immunogenic syngeneic tumors [2]	effect on T and NK cell functions [3]
Cc1nc2cccc(N)c2c(=O)n1C1CCC(=O)NC1=O (centres unmarked) [avadomide]	modest responses of stable disease	–	–
Nc1cccc2c1C(=O)N(C1CCC(=O)NC1=O)C2=O (centres unmarked) [pomalidomide]	modest responses of stable disease	–	–
Nc1cccc2c1CN(C1CCC(=O)NC1=O)C2=O (centres unmarked) [lenalidomide]	modest responses of stable disease	modestly increase antitumor immune responses	augment T and NK cell functions
